# Laboratory results reported in patent EP2147919A1, “Heterocyclic substituted amides, method for their manufacture and their use as herbicides” (Bayer CropScience Aktiengesellschaft, priority 2008, dated 2010).
# What was measured:
# ABUTH [1] = assay: Herbicidal action pre-emergence (greenhouse pot test, visual rating); format: in vivo, Abutilon theophrasti; conditions: Vorauflauf, 1280 g/ha, visual rating after 3 weeks vs untreated controls
# Excerpt: (§1) Samen von mono- bzw. dikotylen Unkraut- bzw. Kulturpflanzen werden in Holzfasertöpfen in sandiger Lehmerde ausgelegt und mit Erde abgedeckt. Die in Form von benetzbaren Pulvern (WP) oder als Emulsionskonzentrate (EC) formulierten erfindungsgemäßen Verbindungen werden dann als wäßrige Suspension bzw. Emulsion mit einer Wasseraufwandmenge von umgerechnet 600 bis 800 l/ha unter Zusatz von 0,2% Netzmittel auf die Oberfläche der Abdeckerde appliziert.
# (§2) Nach der Behandlung werden die Töpfe im Gewächshaus aufgestellt und unter guten Wachstumsbedingungen für die Testpflanzen gehalten. Die visuelle Bonitur der Schäden an den Versuchspflanzen erfolgt nach einer Versuchszeit von 3 Wochen im Vergleich zu unbehandelten Kontrollen (herbizide Wirkung in Prozent (%): 100% Wirkung = Pflanzen sind abgestorben, 0 % Wirkung = wie Kontrollpflanzen).
# VIOTR [2] = assay: as above; format: in vivo, Viola tricolor; conditions: Vorauflauf, 1280 g/ha, visual rating after 3 weeks vs untreated controls
# Excerpt: as §1, §2
# SETVI = assay: as above; format: in vivo, Setaria viridis; conditions: Vorauflauf, 1280 g/ha, visual rating after 3 weeks vs untreated controls
# Excerpt: as §1, §2
# STEME [3] = assay: as above; format: in vivo, Stellaria media; conditions: Vorauflauf, 1280 g/ha, visual rating after 3 weeks vs untreated controls
# Excerpt: as §1, §2
# LOLMU = assay: as above; format: in vivo, Lolium multiflorum; conditions: Vorauflauf, 1280 g/ha, visual rating after 3 weeks vs untreated controls
# Excerpt: as §1, §2
# ECHCG = assay: as above; format: in vivo, Echinochloa crus-galli; conditions: Vorauflauf, 1280 g/ha, visual rating after 3 weeks vs untreated controls
# Excerpt: as §1, §2
# POLCO = assay: as above; format: in vivo, Polygonum convolvolus; conditions: Vorauflauf, 1280 g/ha, visual rating after 3 weeks vs untreated controls
# Excerpt: as §1, §2
# VERPE [4] = assay: as above; format: in vivo, Veronica persica; conditions: Vorauflauf, 1280 g/ha, visual rating after 3 weeks vs untreated controls
# Excerpt: as §1, §2
# MATIN [5] = assay: as above; format: in vivo, Matricaria inodora; conditions: Vorauflauf, 1280 g/ha, visual rating after 3 weeks vs untreated controls
# Excerpt: as §1, §2
# AMARE [6] = assay: as above; format: in vivo, Amaranthus retroflexus; conditions: Vorauflauf, 1280 g/ha, visual rating after 3 weeks vs untreated controls
# Excerpt: as §1, §2
# ALOMY = assay: as above; format: in vivo, Alopecurus myosuroides; conditions: Vorauflauf, 1280 g/ha, visual rating after 3 weeks vs untreated controls
# Excerpt: as §1, §2
# Schadpflanzen = assay: Herbicidal action pre-emergence, summary over the weed spectrum; format: in vivo; conditions: Vorauflaufverfahren, Aufwandmenge von 1.28 kg und weniger Aktivsubstanz pro Hektar
# Excerpt: as §1, §2
# Log P = format: physicochemical
# ABUTH [7] = assay: Herbicidal action post-emergence (greenhouse pot test, visual rating); format: in vivo, Abutilon theophrasti; conditions: Nachauflauf, 1280 g/ha, visual rating after ca. 3 weeks vs untreated controls
# Excerpt: (§3) Samen von mono- bzw. dikotylen Unkraut- bzw. Kulturpflanzen werden in Holzfasertöpfen in sandigem Lehmboden ausgelegt, mit Erde abgedeckt und im Gewächshaus unter guten Wachstumsbedingungen angezogen. 2 bis 3 Wochen nach der Aussaat werden die Versuchspflanzen im Einblattstadium behandelt. Die in Form von benetzbaren Pulvern (WP) oder als Emulsionskonzentrate (EC) formulierten erfindungsgemäßen Verbindungen werden dann als wäßrige Suspension bzw. Emulsion mit einer Wasseraufwandmenge von umgerechnet 600 bis 800 l/ha unter Zusatz von 0,2% Netzmittel auf die grünen Pflanzenteile gesprüht. Nach ca. 3 Wochen Standzeit der Versuchspflanzen im Gewächshaus unter optimalen Wachstumsbedingungen wird die Wirkung der Präparate visuell im Vergleich zu unbehandelten Kontrollen bonitiert (herbizide Wirkung in Prozent (%): 100% Wirkung = Pflanzen sind abgestorben, 0 % Wirkung = wie Kontrollpflanzen).
# AMARE [8] = assay: as above; format: in vivo, Amaranthus retroflexus; conditions: Nachauflauf, 1280 g/ha, visual rating after ca. 3 weeks vs untreated controls
# Excerpt: as §3
# VIOTR [9] = assay: as above; format: in vivo, Viola tricolor; conditions: Nachauflauf, 1280 g/ha, visual rating after ca. 3 weeks vs untreated controls
# Excerpt: as §3
# VERPE [10] = assay: as above; format: in vivo, Veronica persica; conditions: Nachauflauf, 1280 g/ha, visual rating after ca. 3 weeks vs untreated controls
# Excerpt: as §3
# PHBPU = assay: as above; format: in vivo, Pharbitis purpurea; conditions: Nachauflauf, 1280 g/ha, visual rating after ca. 3 weeks vs untreated controls
# Excerpt: as §3
# STEME [11] = assay: as above; format: in vivo, Stellaria media; conditions: Nachauflauf, 1280 g/ha, visual rating after ca. 3 weeks vs untreated controls
# Excerpt: as §3
# MATIN [12] = assay: as above; format: in vivo, Matricaria inodora; conditions: Nachauflauf, 1280 g/ha, visual rating after ca. 3 weeks vs untreated controls
# Excerpt: as §3
structure (smiles),measurement,setting,value
"Cc1cc(OC(C)C)c(C(=O)NC(c2ccc(Cl)cc2)c2ccon2)c(Cl)n1 (racemic) [Beispiel 152, 2-Chlor-N-[(4-chlorphenyl)(isoxazol-3-yl)methyl]-4-isopropoxy-6-methylnicotinamid]",herbizide Wirkung ABUTH,ABUTH [1],100%
same,herbizide Wirkung VIOTR,VIOTR [2],100%
same,herbizide Wirkung SETVI,SETVI,100%
same,herbizide Wirkung STEME,STEME [3],90%
same,herbizide Wirkung LOLMU,LOLMU,90%
same,herbizide Wirkung ECHCG,ECHCG,90%
same,herbizide Wirkung POLCO,POLCO,100%
same,herbizide Wirkung VERPE,VERPE [4],100%
same,herbizide Wirkung MATIN,MATIN [5],100%
same,herbizide Wirkung AMARE,AMARE [6],100%
same,herbizide Wirkung ALOMY,ALOMY,80%
same,herbizide Wirkung gegen Schadpflanzen,Schadpflanzen,sehr gute herbizide Wirkung
"COc1ccc(C(NC(=O)c2cnn(C)c2Cl)c2ccon2)c(F)c1 (racemic) [Beispiel 260, 5-Chlor-N-[(2-fluor-4-methoxyphenyl)(isoxazol-3-yl)methyl]-1-methyl-1 H-pyrazol-4-carboxamid]",logP,Log P,1.8
"COc1cccc(C(NC(=O)c2nsc(Cl)c2Cl)c2ccon2)c1 (racemic) [Beispiel 306, 4,5-Dichlor-N-[(3-methoxyphenyl)(isoxazol-3-yl)methyl]isothiazol-3-carboxamid]",logP,Log P,3.44
"COc1ccc(C(NC(=O)c2c(OC(C)C)cc(C)nc2Br)c2ccon2)c(F)c1 (stereo not drawn) [Beispiel 3, 2-Brom-N-[(2-fluor-4-methoxyphenyl)(isoxazol-3-yl)methyl]-4-isopropoxy-6-methylnicotinamid]",herbizide Wirkung gegen Schadpflanzen,Schadpflanzen,sehr gute herbizide Wirkung
CCCOc1cc(C)nc(Br)c1C(=O)NC(c1ccc(Cl)cc1)c1ccon1 (stereo not drawn) [Beispiel 35],logP,Log P,2.63
same,herbizide Wirkung gegen Schadpflanzen,Schadpflanzen,sehr gute herbizide Wirkung
Cc1ncc(C(=O)NC(c2ccc(Cl)cc2)c2ccon2)c(C)c1Br (stereo not drawn) [Beispiel 131],logP,Log P,2.63
COc1ccc(C(NC(=O)c2cnc(C)c(Br)c2C)c2ccon2)c(F)c1 (stereo not drawn) [Beispiel 132],logP,Log P,2.28
COc1cccc(C(NC(=O)c2c(OC(C)C)cc(C)nc2Br)c2ccon2)c1 (stereo not drawn) [Beispiel 158],logP,Log P,2.16
CCCOc1cc(C)nc(Br)c1C(=O)NC(c1ccon1)c1ccc(Cl)cc1Cl (stereo not drawn) [Beispiel 160],herbizide Wirkung ABUTH,ABUTH [1],100%
same,herbizide Wirkung VIOTR,VIOTR [2],100%
same,herbizide Wirkung SETVI,SETVI,90%
same,herbizide Wirkung STEME,STEME [3],100%
same,herbizide Wirkung POLCO,POLCO,100%
same,herbizide Wirkung VERPE,VERPE [4],100%
same,herbizide Wirkung MATIN,MATIN [5],100%
same,herbizide Wirkung AMARE,AMARE [6],100%
Cc1cc(Cl)c(C(=O)NC(c2ccc(F)c(F)c2)c2ccon2)c(OC(C)C)n1 (stereo not drawn) [Beispiel 164],herbizide Wirkung ABUTH,ABUTH [7],90%
same,herbizide Wirkung AMARE,AMARE [8],100%
same,herbizide Wirkung VIOTR,VIOTR [2],100%
same,herbizide Wirkung STEME,STEME [3],90%
same,herbizide Wirkung VIOTR,VIOTR [9],80%
same,herbizide Wirkung POLCO,POLCO,100%
same,herbizide Wirkung VERPE,VERPE [10],80%
same,herbizide Wirkung PHBPU,PHBPU,80%
same,herbizide Wirkung VERPE,VERPE [4],100%
same,herbizide Wirkung AMARE,AMARE [6],100%
COc1ccc(C(NC(=O)c2c(OC(C)C)cc(C)nc2Cl)c2ccon2)c(F)c1 (stereo not drawn) [Beispiel 187],logP,Log P,2.18
COc1ccncc1C(=O)NC(c1ccc(Cl)cc1)c1ccon1 (stereo not drawn) [Beispiel 188],logP,Log P,1.18
COc1ccc(C(NC(=O)c2cnccc2OC)c2ccon2)c(F)c1 (stereo not drawn) [Beispiel 189],logP,Log P,1
COc1ccncc1C(=O)NC(c1ccc(F)c(F)c1)c1ccon1 (stereo not drawn) [Beispiel 190],logP,Log P,1.07
O=C(NC(c1ccon1)c1ccc(Cl)cc1Cl)c1ccc(Cl)nc1 (stereo not drawn) [Beispiel 201],herbizide Wirkung VIOTR,VIOTR [2],100%
same,herbizide Wirkung STEME,STEME [3],100%
same,herbizide Wirkung VERPE,VERPE [4],100%
Cc1ccc(C(=O)NC(c2ccc(Cl)cc2)c2ccon2)cn1 (stereo not drawn) [Beispiel 209],herbizide Wirkung ABUTH,ABUTH [7],80%
same,herbizide Wirkung VIOTR,VIOTR [9],80%
same,herbizide Wirkung STEME,STEME [11],100%
COc1ccc(C(NC(=O)c2ccc(C)nc2)c2ccon2)c(F)c1 (stereo not drawn) [Beispiel 212],herbizide Wirkung ABUTH,ABUTH [7],80%
same,herbizide Wirkung AMARE,AMARE [8],80%
same,herbizide Wirkung VERPE,VERPE [10],80%
same,herbizide Wirkung STEME,STEME [11],100%
CCCOc1cc(C)nc(Cl)c1C(=O)NC(c1cnc(Cl)c(Cl)c1)c1ccon1 (stereo not drawn) [Beispiel 221],logP,Log P,2.45
Cc1cc(OC(C)C)c(C(=O)NC(c2cnc(Cl)c(Cl)c2)c2ccon2)c(Cl)n1 (stereo not drawn) [Beispiel 222],logP,Log P,2.37
CCCOc1cc(C)nc(Br)c1C(=O)NC(c1cnc(Cl)c(Cl)c1)c1ccon1 (stereo not drawn) [Beispiel 223],logP,Log P,2.6
Cc1cc(OC(C)C)c(C(=O)NC(c2cnc(Cl)c(Cl)c2)c2ccon2)c(Br)n1 (stereo not drawn) [Beispiel 224],logP,Log P,2.51
Cn1nc(C(F)(F)F)c(C(=O)NC(c2ccc(Cl)cc2)c2ccon2)c1Cl (stereo not drawn) [Beispiel 262],herbizide Wirkung VIOTR,VIOTR [2],100%
same,herbizide Wirkung STEME,STEME [3],100%
same,herbizide Wirkung VERPE,VERPE [4],100%
same,herbizide Wirkung MATIN,MATIN [5],90%
same,herbizide Wirkung AMARE,AMARE [6],100%
Cc1nn(C)cc1C(=O)NC(c1ccc(Cl)cc1)c1ccon1 (stereo not drawn) [Beispiel 265],herbizide Wirkung ABUTH,ABUTH [7],100%
same,herbizide Wirkung AMARE,AMARE [8],100%
same,herbizide Wirkung ABUTH,ABUTH [1],90%
same,herbizide Wirkung VIOTR,VIOTR [2],100%
same,herbizide Wirkung STEME,STEME [3],100%
same,herbizide Wirkung VIOTR,VIOTR [9],100%
same,herbizide Wirkung MATIN,MATIN [12],80%
same,herbizide Wirkung VERPE,VERPE [10],100%
same,herbizide Wirkung VERPE,VERPE [4],100%
same,herbizide Wirkung STEME,STEME [11],100%
same,herbizide Wirkung MATIN,MATIN [5],100%
same,herbizide Wirkung AMARE,AMARE [6],100%
COc1ccc(C(NC(=O)c2cn(C)nc2C)c2ccon2)c(F)c1 (stereo not drawn) [Beispiel 266],herbizide Wirkung VIOTR,VIOTR [9],80%
same,herbizide Wirkung VERPE,VERPE [10],90%
same,herbizide Wirkung STEME,STEME [11],100%
O=C(NC(c1ccc(Cl)cc1)c1ccon1)c1ncn(Cc2ccccc2)c1[N+](=O)[O-] (stereo not drawn) [Beispiel 289],logP,Log P,2.63
COc1c(C(=O)NC(c2ccc(Cl)cc2)c2ccon2)csc1Br (stereo not drawn) [Beispiel 290],logP,Log P,3.64
Cc1cc(C(=O)NC(c2ccc(Cl)cc2)c2ccon2)cs1 (stereo not drawn) [Beispiel 295],herbizide Wirkung ABUTH,ABUTH [7],80%
same,herbizide Wirkung VIOTR,VIOTR [9],90%
same,herbizide Wirkung MATIN,MATIN [12],80%
same,herbizide Wirkung STEME,STEME [11],100%
"COc1ccc(C(NC(=S)c2cnn(C)c2Cl)c2ccon2)c(F)c1 (stereo not drawn) [Beispiel 312, 5-Chlor-N-[(2-fluor-4-methoxyphenyl)(isoxazol-3-yl)methyl]-1-methyl-1 H-pyrazol-4-carbothioamid]",logP,Log P,1.76
"COc1c(C(=S)NC(c2ccc(Cl)cc2)c2ccon2)csc1Br (stereo not drawn) [Beispiel 313, 5-Brom-N-[(4-chlorphenyl)(isoxazol-3-yl)methyl]-4-methoxythiophen-3-carbothioamid]",logP,Log P,4.51
